In patent US20090136470A1, “REGULATORY T CELLS AND METHODS OF MAKING AND USING SAME” (priority 2007, published 2009):

How the values were obtained:
CD4^+CD25^−T cells [1] = assay: TGF-β-dependent Foxp3 induction (Treg differentiation) in CD4 T cells with dendritic cells or APCs; type: cell-based, mouse
Method: (§1) For CD4^+CD25^− T cell isolation, spleens were removed, teased into cell-single suspensions and filtered through a 70 μm cell strainer (Fisher Scientific, USA). CD4^+CD25^−T cells were isolated by negative selection after incubation with a mix of specific biotin-conjugated mAbs (anti-CD8, CD11b, CD11ε, CD25, CD45R (B220), NK1.1, and TER119) at 1/200 dilution, and anti-biotin magnetic microbeads (25-40 μl per spleen) (Miltenyi Biotec, USA).
(§2) For dendritic cells isolation, spleen and MLN were chopped and digested by collagenase type D (Roche, USA) for 30 min at room temperature. Digested tissues were treated with 5 mM of EDTA for additional 5 min and mashed through a 70 μm cell strainer. Subsequently, CD11c^+ cells were enriched by positive selection using anti-CD11c microbeads according to the manufacturer's protocol (Miltenyi Biotec, USA). Enriched populations were stained with CD45-APC, CD 11c-PE, I-A^b-FITC and TCR β and sorted for TCRβ^−CD45^+CD11c^+I-Ab^+ by flow cytometry using a FACS-DIVA cell sorter (USA).
(§3) The culture medium used for dendritic cell-T cell cultures was Iscove's modified Dulbecco medium (IMDM) (Gibco, USA) supplemented with 10% heat-inactivated FCS, 2 mM L-glutamine, 100 U/ml penicillin, 100 μg/ml streptomycin, and 5 mM β-mercaptoethanol (all Sigma, USA). […] For dendritic cell-T cell cultures, 2×10^4 dendritic cells and 1×10^5 T cells were cultured in a volume of 200 μl (96-well plates). For irradiated APC-T cell cultures, 5×10^5 APCs and 1×10^5 T cells were cultured in a volume of 200 μl in 96-well plates (2×10^6 APCs and 0.5×10^6 T cells per well in 48-well plates). […] For the study shown in FIG. 4A, after sorting of naive CD4^+ cells (CD25^−CD44^lowCD62L^+), cells were washed twice in PBS+0.1% BSA, counted and labeled with 2 μM of CFSE (Carboxyfluorescein diacetate, succinimidyl ester) (Molecular Probes, USA) at a concentration of 5−10×10^6 cells per ml in PBS-0.1% BSA.
(§4) For Foxp3 staining, no stimulation with PMA/Ionomycin was performed, with the exceptions of FIGS. 8B and 9A. […]

[2] = test system: naïve CD4^+T cells from B7.1/2^−/− IL-2^+/+ or B7.1/2^−/− IL-2^−/− mice; assay: RA-mediated effects on T cell differentiation without IL-2 (anti-IL-2 or IL-2−/− T cells) or with exogenous IL-2; type: cell-based, mouse
Method: as §3
(§5) For Foxp3 staining, no stimulation with PMA/Ionomycin was performed, with the exceptions of FIGS. 8B and 9A.

RAR = settings: cited from earlier work
naïve CD4^+T cells = assay: Re-stimulation (secondary cultures) of in vitro differentiated CD4 T cells: Foxp3 and IL-17 staining; type: cell-based, mouse; settings: cells first stimulated with TGF-β and IL-6, rested
Method: as §3
(§6) To block non-specific staining, the 2.4G2 anti-CD16/32 antibody was added. […] For intracellular cytokine staining, cells obtained from in vitro cultures or isolated IELs were incubated for 4-5 hours with 50 ng/ml PMA, 750 ng/ml Ionomycin (both Sigma, USA) and 10 μg/ml Brefeldin A (Invitrogen, USA) in a tissue culture incubator at 37° C.
as §4

RORγt = RORγt mRNA by real-time PCR in CD4 T cells under Th-17 culture conditions; type: cell-based, mouse; settings: α-CD3ε and α-CD28, IL-17 inducing cytokines
From the text: For analysis of RORγ-T mRNA expression, naïve CD4^+T cells were purified essentially as described by Ivanov et al. [Ivanov, II et al., Cell 126, 1121 (2006)]. In brief, CD4+ T cells were purified from spleens of C57BL/6 mice using anti-CD4 magnetic microbeads (Miltenyi Biotec) and MACS columns. CD4^+T cells were stained with anti-CD25-PE, anti-CD4-PECy5, anti-CD62L-FITC, and anti-CD44-APC. The CD4^+CD25^− CD44^lowCD62L^+ T cells population was sorted by flow cytometry using a FACS-DIVA cell sorter (>99% purity). Some studies were also performed using CD4^+CD45RB^high T cell population, sorted as described above.
At different time-points, cells were harvested, washed with sterile PBS and resuspended in TRIZol (Invitrogen, USA). Samples were then frozen and kept at −80° C. for later utilization. For RNA isolation, the whole tissue was homogenized and RNA was separated from DNA and proteins by precipitation with chloroform and extraction with isopropanol. The cDNA was synthesized from the total RNA using the Superscript II system (Invitrogen, USA) following the instructions provided by the manufacturer. […] Data were collected and analyzed on an iCycler Bio-Rad (Hercules, USA).

CD8^+ spleen T cells = assay: IL-17^+ cell generation from CD8^+ T cells activated with TGF-β and IL-6
[3] = test system: CD8^+T cells from OT-I TCR transgenic mice
Method: as §3, §5

CD4^+CD25^−T cells [4] = assay: CTLA-4, CD103, CCR9 and CD25 staining of CD4 T cells stimulated with spleen APCs plus TGF-β1 and/or RA; type: cell-based, mouse
Method: as §1
APCs were isolated from spleen of C57BL/6 mice by negative selection using CD90.2 (Thy1.2) magnetic microbeads to deplete T cells (Miltenyi Biotec).
as §3, §6

[5] = test system: CD4^+CD25^− spleen T cells; assay: Th-17 differentiation of CD4 T cells stimulated with dendritic cells or spleen APCs plus TGF-β and IL-6 (intracellular IL-17 staining, IL-17 ELISA); type: cell-based, mouse
Method: as §1, §2, §3
To block non-specific staining, the 2.4G2 anti-CD16/32 antibody was added.

[6] = test system: Polyclonal CD4^+CD25^− spleen T cells; assay: APC-free Th-17 generation (anti-CD3/CD28 beads, IL-17 cond.: TGF-β, IL-6, IL-1β, TNF-α); type: cell-based, mouse
Method: as §3, §6

In the case of `CC1=C(/C=C/C(C)=C/C=C/C(C)=C/C(=O)O)C(C)(C)CCC1` [RA, All-trans retinoic acid], the “TGF-β-dependent Foxp3 induction by MLN dendritic cells” value (CD4^+CD25^−T cells [1]; OT-II CD4 cells, OVAp, TGF-β1, LE135 1 μM, RA 100 nM) is reported as “enhanced”, the “TGF-β-dependent Foxp3 induction under low amounts of TGF-β” value (CD4^+CD25^−T cells [1]; TGF-β 0.5 ng/ml, TCR-transgenic CD4 cells) is reported as “still enhances” and the “requirement for exogenously added IL-2” value [2] is reported as “did not require exogenously added IL-2”. The “CD103 phenotype of the Foxp3^+Tregs generated” value ([2]; TGF-β-dependent Foxp3 differentiation) was “mostly CD103^+Tregs”, the “dependence of Foxp3^+ enhancing and Th-17 inhibitory effects on IL-2” value ([2]; anti-IL-2 (20 μg/ml) or IL-2−/− T cells) was “for the most part dependent on IL-2” and the “IL-17 cytokine secretion (ELISA)” value ([2]; culture supernatants) was “measurably decreased”. For the same molecule, the “binding to RAR-RAR homodimers and RAR-RXR heterodimers” value (RAR) was “can bind”, the “committed Th-17 cells in secondary cultures” value (naïve CD4^+T cells) was “also suppressed committed Th-17 cells” and the “RORγt mRNA expression” value (RORγt) was “greatly reduced its expression”. For the same molecule, the “generation of IL-17^+ T cells from cytotoxic CD8^+ T lymphocytes” value (CD8^+ spleen T cells; WT or OT-I TCR^+ CD8^+ T cells, TGF-β and IL-6) was “again able to inhibit this”, the “Foxp3 / Th-17 differentiation of CD8 T cells under conditions that promote Th-17 differentiation” value (CD8^+ spleen T cells; cultured with RA) was “converted to Foxp3^+ cells with a decrease in Th-17 differentiation” and the “CD103 expression on CD8 cells” value ([3]; TGF-β and RA) was “synergized to upregulate CD103 expression”. The “CD25 expression of CD8 T cells upon in vitro activation” value ([3]; in the presence of TGF-β and RA) was “down-regulate CD25 expression”, the “expression of CTLA-4 on TGF-β-generated Foxp3^+ cells” value (CD4^+CD25^−T cells [4]) was “promoted the expression of CTLA-4” and the “induction of CTLA-4 on Foxp3^− and Foxp3^+ activated cells (early)” value (CD4^+CD25^−T cells [4]; OT-II CD4 T cells, spleen APCs, TGF-β and RA) was “delayed”. For the same molecule, the “CTLA-4 and Foxp3 phenotype of the majority of cells at later time-points” value (CD4^+CD25^−T cells [4]; OT-II CD4 T cells, spleen APCs, cultured with TGF-β and RA) was “both CTLA-4 and Foxp3^+”, the “TGF-β-mediated CD103 expression on CD4 cells” value (CD4^+CD25^−T cells [4]; soluble α-CD3ε, spleen APCs, TGF-β1) was “greatly enhanced” and the “antagonistic effect on IL-6 (Foxp3 versus IL-17)” value ([5]; TGF-β 5 ng/ml, varied concentrations of IL-6 and RA) was “dose dependent”. The “Foxp3 / Th-17 differentiation of CD4 T cells under conditions that promote Th-17 differentiation” value ([5]; TNF-α, IL-1-β, TGF-β and IL-6 plus RA) was “converted to Foxp3^+ cells with a decrease in Th-17 differentiation”, the “Th-17 differentiation by spleen dendritic cells” value ([5]; added to cultures with TGF-β and IL-6, 100 nM) was “inhibited the Th-17 differentiation by spleen dendritic cells” and the “generation of IL-17^+ T cells under APC-free conditions” value [6] was “also inhibited the generation of IL-17^+T cells”.
